According to patent US9694016B2 (Novartis AG, priority 2013, dated 2017):

Molecular target: b-Raf (V600E) (Homo sapiens (Human), UniProt P15056, V600E)
Conditions: read-out: b-Raf IC-50; AlphaScreen, 60 min pre-incubation, reaction 3 hours at room temperature
Excerpt: Sf9 cells co-expressing both proteins were lysed and subjected to immobilized nickel chromatography and eluted with Imidazole. A second column (StrepII binding column) was used and eluted with desthiobiotin. Protein Tags were removed using Prescission enzyme and the protein was further purified using a flowthrough step to remove tags.
Full length MEK1 with an inactivating K97R ATP binding site mutation is utilized as a RAF substrate. The MEK1 cDNA was subcloned with an N-terminal (his)6 tag into a vector for E. Coli expression. The MEK1 substrate was purified from E. Coli lysate by nickel affinity chromatography followed by anion exchange. The final MEK1 preparation was biotinylated (Pierce EZ-Link Sulfo-NHS-LC-Biotin) and concentrated.
Assay buffer: 50 mM Tris, pH 7.5, 15 mM MgCl2, 0.01% Bovine Serum Albumin (BSA), 1 mM dithiothreitol (DTT) Stop buffer: 60 mM ethylenediaminetetraacetic acid (EDTA), 0.01% Tween® 20
biotinylated Mek, kinase dead
384 well low volume assay plates (White Greiner® plates)
biotinylated Mek, Kinase dead approximately 10 nM
Pre-incubation time with compounds 60 minutes at room temperature
Reaction time 1 or 3 hours at room temperature
The plate was incubated for 60 minutes at room temperature.
The additions were carried out under dark conditions to protect the detection beads from light. A lid was placed on top of the plate and incubated for 1 hour at room temperature, then the luminescence was read on a PerkinElmer Envision instrument.

Sequence of b-Raf (V600E) (P15056 whole entry V600E): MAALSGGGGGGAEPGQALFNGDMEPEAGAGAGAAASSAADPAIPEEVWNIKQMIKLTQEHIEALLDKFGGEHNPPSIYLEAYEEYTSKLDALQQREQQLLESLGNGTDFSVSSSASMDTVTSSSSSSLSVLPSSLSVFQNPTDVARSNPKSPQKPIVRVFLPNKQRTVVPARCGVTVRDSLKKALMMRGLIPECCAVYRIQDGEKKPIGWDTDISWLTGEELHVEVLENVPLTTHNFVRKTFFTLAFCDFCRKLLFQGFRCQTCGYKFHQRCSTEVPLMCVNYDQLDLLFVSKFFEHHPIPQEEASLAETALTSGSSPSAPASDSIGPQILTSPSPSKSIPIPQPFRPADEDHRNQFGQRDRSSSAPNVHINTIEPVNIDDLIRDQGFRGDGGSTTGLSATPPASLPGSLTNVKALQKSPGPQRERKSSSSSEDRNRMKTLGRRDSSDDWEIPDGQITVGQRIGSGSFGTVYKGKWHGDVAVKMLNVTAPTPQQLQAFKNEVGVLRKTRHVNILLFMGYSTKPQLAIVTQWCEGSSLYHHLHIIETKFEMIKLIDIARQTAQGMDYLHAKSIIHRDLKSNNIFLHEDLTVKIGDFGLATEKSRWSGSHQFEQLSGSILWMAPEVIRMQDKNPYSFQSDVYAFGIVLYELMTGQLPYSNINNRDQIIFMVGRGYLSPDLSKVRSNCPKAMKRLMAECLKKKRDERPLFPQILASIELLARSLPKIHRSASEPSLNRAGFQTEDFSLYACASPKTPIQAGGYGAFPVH

Row | Structure (SMILES) | IC50
1 | Cc1ncc(NC(=O)c2ccnc(C(C)(F)F)c2)cc1-c1cc(N2CCOCC2)c(S(C)(=O)=O)nn1 [Example 920, 2-(1,1-difluoroethyl)-N-(6-methyl-5-(6-(methylsulfonyl)-5-morpholinopyridazin-3-yl)pyridin-3-yl)isonicotinamide] | 8.85 nM
2 | Cc1ncc(NC(=O)c2ccnc(C(F)(F)F)c2)cc1-c1cc(N2CCOCC2)c(S(C)(=O)=O)nn1 [Example 921, N-(6-methyl-5-(6-(methylsulfonyl)-5-morpholinopyridazin-3-yl)pyridin-3-yl)-2-(trifluoromethyl)isonicotinamide] | 7.73 nM
3 | Cc1ncc(NC(=O)c2cc(C(F)(F)F)ccn2)cc1-c1cc(N2CCOCC2)c(S(C)(=O)=O)nn1 [Example 923, N-(6-methyl-5-(6-(methylsulfonyl)-5-morpholinopyridazin-3-yl)pyridin-3-yl)-4-(trifluoromethyl)picolinamide] | 5.46 nM
4 | Cc1ncc(NC(=O)c2ccnc(C(C)(C)C#N)c2)cc1-c1cc(N2CCOCC2)c(S(C)(=O)=O)nn1 [Example 924, 2-(2-cyanopropan-2-yl)-N-(6-methyl-5-(6-(methylsulfonyl)-5-morpholinopyridazin-3-yl)pyridin-3-yl)isonicotinamide] | 57.7 nM
5 | CCC(F)(F)c1cc(C(=O)Nc2cnc(C)c(-c3cc(N4CCOCC4)c(S(C)(=O)=O)nn3)c2)ccn1 [Example 925, 2-(1,1-difluoropropyl)-N-(6-methyl-5-(6-(methylsulfonyl)-5-morpholinopyridazin-3-yl)pyridin-3-yl)isonicotinamide] | 12.2 nM
6 | CCC(F)(F)c1cc(C(=O)Nc2ccc(C)c(-c3cc(N4CCOCC4)c(S(C)(=O)=O)nn3)c2)ccn1 [Example 926, 2-(1,1-difluoropropyl)-N-(4-methyl-3-(6-(methylsulfonyl)-5-morpholinopyridazin-3-yl)phenyl)isonicotinamide] | 2.13 nM
7 | Cc1ncc(NC(=O)c2ccnc(C(C)(C)F)c2)cc1-c1cc(N2CCOCC2)c(S(C)(=O)=O)nn1 [Example 927, 2-(2-fluoropropan-2-yl)-N-(6-methyl-5-(6-(methylsulfonyl)-5-morpholinopyridazin-3-yl)pyridin-3-yl)isonicotinamide] | 7.91 nM
8 | Cc1ccc(NC(=O)c2ccnc(C(C)(C)F)c2)cc1-c1cc(N2CCOCC2)c(S(C)(=O)=O)nn1 [Example 928, 2-(2-fluoropropan-2-yl)-N-(4-methyl-3-(6-(methylsulfonyl)-5-morpholinopyridazin-3-yl)phenyl)isonicotinamide] | 1.9 nM
9 | Cc1ccc(NC(=O)c2ccnc(C(C)(F)F)c2)cc1-c1cc(N2CCOCC2)c(S(C)(=O)=O)nn1 [Example 929, 2-(1,1-difluoroethyl)-N-(4-methyl-3-(6-(methylsulfonyl)-5-morpholinopyridazin-3-yl)phenyl)isonicotinamide] | 1.05 nM
10 | Cc1ccc(NC(=O)c2ccnc(C(F)(F)F)c2)cc1-c1cc(N2CCOCC2)c(S(C)(=O)=O)nn1 [Example 930] | 1.03 nM
11 | Cc1ccc(NC(=O)c2ccnc(C(C)(C)C#N)c2)cc1-c1cc(N2CCOCC2)c(S(C)(=O)=O)nn1 [Example 931, 2-(2-cyanopropan-2-yl)-N-(4-methyl-3-(6-(methylsulfonyl)-5-morpholinopyridazin-3-yl)phenyl)isonicotinamide] | 2.7 nM
12 | Cc1ccc(NC(=O)c2ccnc(C(C)(C)O)c2)cc1-c1cc(N2CCOCC2)c(S(C)(=O)=O)nn1 [Example 932, 2-(2-hydroxypropan-2-yl)-N-(4-methyl-3-(6-(methylsulfonyl)-5-morpholinopyridazin-3-yl)phenyl)isonicotinamide] | 6.89 nM
13 | Cc1ccc(NC(=O)c2cc(C(F)(F)F)ccn2)cc1-c1cc(N2CCOCC2)c(S(C)(=O)=O)nn1 [Example 933, N-(4-methyl-3-(6-(methylsulfonyl)-5-morpholinopyridazin-3-yl)phenyl)-4-(trifluoromethyl)picolinamide] | 0.78 nM
14 | COc1ncc(-c2cc(NC(=O)c3cccc(C(F)(F)F)c3)nnc2C)cc1N1CCOCC1 [Example 934, N-(5-(6-methoxy-5-morpholinopyridin-3-yl)-6-methylpyridazin-3-yl)-3-(trifluoromethyl)benzamide] | 4.2 nM
15 | Cc1ncc(NC(=O)c2cncc(C(F)(F)F)c2)cc1-c1cnc(OCC(F)F)c(N2CCOCC2)c1 [Example 935, N-(6′-(2,2-difluoroethoxy)-2-methyl-5′-morpholino-[3,3′-bipyridin]-5-yl)-5-(trifluoromethyl)nicotinamide] | 2.04 nM
16 | Cc1ncc(NC(=O)c2cnnc(C3(C#N)CC3)c2)cc1-c1cnc(OCC(F)F)c(N2CCOCC2)c1 [Example 936, 6-(1-cyanocyclopropyl)-N-(6′-(2,2-difluoroethoxy)-2-methyl-5′-morpholino-[3,3′-bipyridin]-5-yl)pyridazine-4-carboxamide] | 7.55 nM
17 | Cc1ncc(NC(=O)c2cccc(S(C)(=O)=O)c2)cc1-c1cnc(OC2CCOCC2)c(N2CCOCC2)c1 [Example 937, N-(2-methyl-5′-morpholino-6′-((tetrahydro-2H-pyran-4-yl)oxy)-[3,3′-bipyridin]-5-yl)-3-(methylsulfonyl)benzamide] | 4.53 nM

Row | Structure (SMILES) | IC50
18 | Cc1ncc(NC(=O)c2ccnc(C(C)(F)F)c2)cc1-c1cnc(OC2CCOCC2)c(N2CCOCC2)c1 [Example 938, 2-(1,1-difluoroethyl)-N-(2-methyl-5′-morpholino-6′-((tetrahydro-2H-pyran-4-yl)oxy)-[3,3′-bipyridin]-5-yl)isonicotinamide] | 2.36 nM
19 | Cc1ncc(NC(=O)c2ccnc(C(C)(C)O)c2)cc1-c1cnc(OC2CCOCC2)c(N2CCOCC2)c1 [Example 939, 2-(2-hydroxypropan-2-yl)-N-(2-methyl-5′-morpholino-6′-((tetrahydro-2H-pyran-4-yl)oxy)-[3,3′-bipyridin]-5-yl)isonicotinamide] | 15.3 nM
20 | Cc1ncc(NC(=O)c2ccnc(C3CC3)c2)cc1-c1cnc(OC2CCOCC2)c(N2CCOCC2)c1 [Example 941, 2-cyclopropyl-N-(2-methyl-5′-morpholino-6′-((tetrahydro-2H-pyran-4-yl)oxy)-[3,3′-bipyridin]-5-yl)isonicotinamide] | 2.28 nM
21 | Cc1ncc(NC(=O)c2cc(C(F)(F)F)ccn2)cc1-c1cnc(OC2CCOCC2)c(N2CCOCC2)c1 [Example 942, N-(2-methyl-5′-morpholino-6′-((tetrahydro-2H-pyran-4-yl)oxy)-[3,3′-bipyridin]-5-yl)-4-(trifluoromethyl)picolinamide] | 2.17 nM
22 | Cc1ncc(NC(=O)c2cc(C(C)(C)C#N)ccn2)cc1-c1cnc(OC2CCOCC2)c(N2CCOCC2)c1 [Example 943, 4-(2-cyanopropan-2-yl)-N-(2-methyl-5′-morpholino-6′-((tetrahydro-2H-pyran-4-yl)oxy)-[3,3′-bipyridin]-5-yl)picolinamide] | 9.51 nM
23 | Cc1ncc(NC(=O)c2cnnc(C3(C#N)CC3)c2)cc1-c1cnc(OC2CCOCC2)c(N2CCOCC2)c1 [Example 944, 6-(1-cyanocyclopropyl)-N-(2-methyl-5′-morpholino-6′-((tetrahydro-2H-pyran-4-yl)oxy)-[3,3′-bipyridin]-5-yl)pyridazine-4-carboxamide] | 3.89 nM
24 | Cc1ccc(NC(=O)c2ccnc(C(C)(F)F)c2)cc1-c1cnc(OC(C)C)c(N2CCOCC2)c1 [Example 945, 2-(1,1-difluoroethyl)-N-(3-(6-isopropoxy-5-morpholinopyridin-3-yl)-4-methylphenyl)isonicotinamide] | 1.35 nM
25 | Cc1ccc(NC(=O)c2ccnc(C(C)(C)F)c2)cc1-c1cnc(OC(C)C)c(N2CCOCC2)c1 [Example 946, 2-(2-fluoropropan-2-yl)-N-(3-(6-isopropoxy-5-morpholinopyridin-3-yl)-4-methylphenyl)isonicotinamide] | 2.36 nM
26 | Cc1ccc(NC(=O)c2ccnc(C(C)(C)O)c2)cc1-c1cnc(OC(C)C)c(N2CCOCC2)c1 [Example 947, 2-(2-hydroxypropan-2-yl)-N-(3-(6-isopropoxy-5-morpholinopyridin-3-yl)-4-methylphenyl)isonicotinamide] | 1.76 nM
27 | Cc1ccc(NC(=O)c2cc(C(C)(C)C#N)ccn2)cc1-c1cnc(OC(C)C)c(N2CCOCC2)c1 [Example 948, 4-(2-cyanopropan-2-yl)-N-(3-(6-isopropoxy-5-morpholinopyridin-3-yl)-4-methylphenyl)picolinamide] | 2.33 nM
28 | Cc1ccc(NC(=O)c2cc(C(C)(C)O)ccn2)cc1-c1cnc(OC(C)C)c(N2CCOCC2)c1 [Example 949, 4-(2-hydroxypropan-2-yl)-N-(3-(6-isopropoxy-5-morpholinopyridin-3-yl)-4-methylphenyl)picolinamide] | 3.63 nM
29 | Cc1ccc(NC(=O)c2ccnc(S(C)(=O)=O)c2)cc1-c1cnc(OC(C)C)c(N2CCOCC2)c1 [Example 950, N-(3-(6-isopropoxy-5-morpholinopyridin-3-yl)-4-methylphenyl)-2-(methylsulfonyl)isonicotinamide] | 0.47 nM
30 | Cc1ccc(NC(=O)c2cncc(C(F)(F)F)c2)cc1-c1cnc(OC(C)C)c(N2CCOCC2)c1 [Example 951, N-(3-(6-isopropoxy-5-morpholinopyridin-3-yl)-4-methylphenyl)-5-(trifluoromethyl)nicotinamide] | 0.31 nM
31 | Cc1ncc(NC(=O)c2ccnc(C(C)(F)F)c2)cc1-c1cnc(OC(C)C)c(N2CCOCC2)c1 [Example 952, 2-(1,1-difluoroethyl)-N-(6′-isopropoxy-2-methyl-5′-morpholino-[3,3′-bipyridin]-5-yl)isonicotinamide] | 1.98 nM
32 | Cc1ncc(NC(=O)c2ccnc(C(C)(C)F)c2)cc1-c1cnc(OC(C)C)c(N2CCOCC2)c1 [Example 953, 2-(2-fluoropropan-2-yl)-N-(6′-isopropoxy-2-methyl-5′-morpholino-[3,3′-bipyridin]-5-yl)isonicotinamide] | 3.33 nM
33 | Cc1ncc(NC(=O)c2ccnc(C(C)(C)C#N)c2)cc1-c1cnc(OC(C)C)c(N2CCOCC2)c1 [Example 954, 2-(2-cyanopropan-2-yl)-N-(6′-isopropoxy-2-methyl-5′-morpholino-[3,3′-bipyridin]-5-yl)isonicotinamide] | 7.3 nM
